Our source for the IC50 values is patent publication EP3436445B1, “HISTONE DEMETHYLASE INHIBITORS” (Celgene Quanticel Research, Inc., priority 2016, dated 2017).

By IC50 is commonly meant the concentration needed to halve the response being measured. The low end stands for greater potency, the high end for weaker potency.

The assay has as its target T1, FBXL10 (Homo sapiens, UniProt Q8NHM5).
T1 construct: purchased BPS Bioscience 50120
T1 sequence (Q8NHM5 1-650): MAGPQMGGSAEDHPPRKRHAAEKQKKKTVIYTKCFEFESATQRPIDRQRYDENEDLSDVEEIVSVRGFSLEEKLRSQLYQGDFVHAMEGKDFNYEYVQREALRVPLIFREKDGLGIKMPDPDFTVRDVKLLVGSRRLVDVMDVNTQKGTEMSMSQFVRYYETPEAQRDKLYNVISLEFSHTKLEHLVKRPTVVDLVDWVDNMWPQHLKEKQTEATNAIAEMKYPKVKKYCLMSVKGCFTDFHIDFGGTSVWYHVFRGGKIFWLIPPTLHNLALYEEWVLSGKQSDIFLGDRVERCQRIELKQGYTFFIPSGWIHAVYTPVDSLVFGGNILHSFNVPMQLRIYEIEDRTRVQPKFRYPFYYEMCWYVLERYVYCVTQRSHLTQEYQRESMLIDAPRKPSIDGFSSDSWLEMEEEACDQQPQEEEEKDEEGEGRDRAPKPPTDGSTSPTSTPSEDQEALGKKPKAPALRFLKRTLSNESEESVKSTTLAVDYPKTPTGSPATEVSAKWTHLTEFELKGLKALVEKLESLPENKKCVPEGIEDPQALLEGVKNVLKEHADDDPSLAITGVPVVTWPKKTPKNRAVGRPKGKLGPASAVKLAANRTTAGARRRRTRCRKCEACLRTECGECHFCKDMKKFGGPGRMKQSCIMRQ
As to the kind of experiment: FBXL10 in vitro enzyme inhibition assay (AlphaScreen). It counts as biochemical. As to conditions: Table 5. In a few lines: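 Reactions ran 1 h at room temperature with 0.3 nM FBXL10 (aa 1-650, baculovirus). Substrates were 30 nM biotin-H3K36me2 peptide and 0.2 µM α-ketoglutarate in pH 7.3 HEPES buffer containing Fe(II) and ascorbate.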

Take `Cc1ccc2c(c1)CCCC2Cn1cnc(-c2cc(-c3nn[nH]c3C(F)(F)F)ccn2)c1` (centres unmarked) [Example 102, 2-{1-[(6-methyl-1,2,3,4-tetrahydronaphthalen-1-yl)methyl]-1H-imidazol-4-yl}-4-[5-(trifluoromethyl)-1H-1,2,3-triazol-4-yl]pyridine]: the IC50 was 1 to 10 µM.

Consider `Cc1ccc2c(c1)C(Cn1cnc(-c3cc(-c4nn[nH]c4C(F)(F)F)ccn3)c1)CCC2` (centres unmarked) [Example 103, 2-{1-[(7-methyl-1,2,3,4-tetrahydronaphthalen-1-yl)methyl]-1H-imidazol-4-yl}-4-[5-(trifluoromethyl)-1H-1,2,3-triazol-4-yl]pyridine], for which the IC50 was in the range of 0.1 to 1 µM.

In the case of `COc1ccc2c(c1)CCCC2Cn1cnc(-c2cc(-c3nn[nH]c3C(F)(F)F)ccn2)c1` (centres unmarked) [Example 105, 2-{1-[(6-methoxy-1,2,3,4-tetrahydronaphthalen-1-yl)methyl]-1H-imidazol-4-yl}-4-[5-(trifluoromethyl)-1H-1,2,3-triazol-4-yl]pyridine], the IC50 lay in the range of 0.1 to 1 µM.

In turn, `COc1ccc2c(c1)C(Cn1cnc(-c3cc(-c4nn[nH]c4C(F)(F)F)ccn3)c1)CCC2` (centres unmarked) [Example 106, 2-{1-[(7-methoxy-1,2,3,4-tetrahydronaphthalen-1-yl)methyl]-1H-imidazol-4-yl}-4-[5-(trifluoromethyl)-1H-1,2,3-triazol-4-yl]pyridine] displayed an IC50 of 0.1 to 1 µM.

`COc1cccc2c1C(Cn1cnc(-c3cc(-c4nn[nH]c4C(F)(F)F)ccn3)c1)CCC2` (centres unmarked) [Example 107, 2-{1-[(8-methoxy-1,2,3,4-tetrahydronaphthalen-1-yl)methyl]-1H-imidazol-4-yl}-4-[5-(trifluoromethyl)-1H-1,2,3-triazol-4-yl]pyridine] returned an IC50 of 0.1 to 1 µM.
